Measurements as given in US10732174B2, “Three dimensional tissues for high-throughput assays” (INVIVOSCIENCES, INC., priority 2008, dated 2020).
Entries after “also recorded” stand apart in the source; their conditions may differ. Like-named read-outs stand apart in the source and are kept apart here. Values belong to the compound of their own block, whether it stands above or below them.

Legend:
[1] = test system: hydrogel tissue constructs (HTCs) of REF-52 cells; test: HTC force measurement (Palpator); type: cell-based, rat; settings: for effect on tissue (HTC contractile) force, in words: 3 and 24 hr
Procedure: Rat embryonic fibroblasts (REF-52) were cultured in Dulbecco's Modified Eagle's Medium (DMEM, MT10013CM, Fisher Scientific, Pittsburgh, Pa.) supplemented with 10% fetal bovine serum (FBS, S11050, Atlanta Biologicals, Lawrenceville, Ga.). Cells were sub-cultured every two to three days. To make hydrogel tissue constructs (HTCs), REF-52 cells (between passages 40 to 70) were dissociated from culture plates by treating with 0.05% trypsin (MT-25-025-CI, Fisher Scientific) for 10 to 15 min. The cells were then centrifuged at 1000 g for 10 min. The trypsin solution was decanted and the cell pellet was re-suspended in 10% FBS DMEM medium. This cell suspension was diluted in HTC tissue solution to achieve a final concentration of 8×10^5 cells per ml. The HTC tissue solution consisted of 10% FBS DMEM, 1 mg/ml of type 1 collagen (354249, BD Biosciences, San Jose, Calif.) in 0.02 N acetic acid, sufficient sodium hydroxide to neutralize the acid in the collagen, and sufficient 5×DMEM to compensate for the volume of collagen and NaOH. To prevent premature collagen polymerization, the HTC tissue solution was kept on ice until its distribution into our custom-made tissue molds (FIG. 3). Each mold contains 8 separate HTC-forming wells with two built-in horizontal support bars. Three hundred microliters of the HTC tissue solution was aliquoted into each well in these molds and then incubated for 30 min at 37° C. and 5% CO2. After the incubation period, […] of 10% FBS DMEM medium was added to each well and the molds were further incubated for 48 hr. In this time, the solution contracted to form HTCs that span the support bars in the wells.
The Palpator™ (as described in U.S. Pat. No. 7,449,306, which is incorporated herein by reference in its entirety) was used to quantify the contractility of the HTCs. The molds were placed on the stage of the Palpator™ which automatically inserted a probe into each well and stretched the individual HTC. The probe was connected to a force transducer which measured the resistance force induced in the HTC in response to stretch and exported the values to a computer for recording. A custom Matlab algorithm was used to process and analyze the force data to report a numerical parameter that is indicative of the active cell force in the HTC. To obtain stable measurements of the HTC contractile force, it was necessary to precondition the HTCs by stretching three times prior to actual force measurement. Preconditioning was not necessary if subsequent force measurements were within 30 min of the previous stretch. HTCs at 24 hr post treatment were always pre-conditioned before force measurement.

[2] = test system: mitochondrial membrane potential in HTCs of REF-52 cells; test: HTC TMRE labeling, mitochondrial potential; type: cell-based, rat; settings: for effect on mitochondrial potential, in words: HTC, TMRE; for EC50: Rattus norvegicus, read-out: EC50 of TMRE signal reduction (MMP uncoupling)
Procedure: The ethyl ester of tetramethylrhodamine (TMRE, T-669, Invitrogen, Carlsbad, Calif.) was used to quantify the mitochondrial potential of the HTCs. HTCs were incubated in 100 nM TMRE for 30 min and then in phenol red free 10% FBS DMEM for 60 min. Phenol red free medium was used to prevent interference with TMRE fluorescence reading. Following labeling, HTCs were preconditioned with three stretches and then prior to background force measurement. HTC TMRE signal was then read on a Synergy HT plate reader (Biotek Instruments, Winooski, Vt.). A custom made adapter plate was used to position the tissue molds on the plate-holding rack of the plate reader. Fluorescence signal was read from the bottom using the 543/590 excitation/emission filter set and a gain setting of 50. TMRE fluorescence intensity was also read following each force measurement at predetermined time points after drug treatments.
TMRE is cationic and accumulates in the mitochondria as a function of MMP. […] More detailed investigation of DNP's effect on TMRE accumulation using confocal microscopy improved signal detection in both monolayers and HTCs (FIG. 6C and FIG. 6D).

REF-52 cells = settings: for F-actin morphology in cells, microscopy: REF monolayers, 3 hr and 24 hr; for cytotoxicity signs in cell monolayers (confluency, nuclei, shrinkage): 24 hours
Procedure: REF-52 cells were plated on 35 mm culture dishes (50,000 cells) in 10% FBS medium (2 ml). Cells are incubated over night and then treated with compounds. […] Cells were incubated with drugs for 24 hours prior to fixing. To fix, treated cells were rinsed once with 2 ml of phosphate buffered saline (PBS, D5652) and then incubated in 1 ml of 4% paraformaldehyde (Sigma) solution (in PBS) for 30 min. Fixed cells are rinsed twice and then stored in 2 ml of PBS.
Fixed REF-52 cells were permeabilized by incubating in 1 ml of 0.1% Triton (BP151, Fisher Scientific) solution (in PBS) for 15 min. Permeabilized cells were rinsed twice with 1 ml TBST buffer and then blocked with 1 ml of 5% goat serum in TBST for 1 hour. One milliliter of 1:200 diluted Alexa 568 conjugated phalloidin (A12380, Invitrogen) in TBST with 2% goat serum was then added to the cells. This staining solution also contained 400 nM of DAPI (D9564). Cells were stained for 30 min and then rinsed twice with TBST. Labeled cells were mounted with Vectashield (Vector Laboratories, Burlingame, Calif.), covered with a cover slide and then sealed with nail polish. The plate was then inverted on to a Leica SP5 confocal microscope (Leica Microsystems, Bannockburn, Ill.) and imaged with 63× water immersion objective. Alexa 568 was excited using the 543 laser line and DAPI was excited using a MaiTai multi-photon laser.

[3] = test system: F-actin in HTCs of REF-52 cells; test: F-actin content of HTCs, Alexa-phalloidin, plate reader; type: cell-based, rat; settings: HTC treated 24 hours
Excerpt: FIG. 5A-FIG. 5W. FIG. 5A is a photograph of The Palpator™. The system includes an isometric force transducer (a), probe baths (b), and a hydrogel tissue construct (HTC) stage (c) on a temperature regulator plate (d). FIG. 5B is a photograph showing the x-y-z motion robotic arm which positions the force transducer with attached probe above the HTCs and lowers the probe onto the tissue for force measurement. FIG. 5C is a schematic of the robotic arm with attached force transducer and probe. FIG. 5D is a photograph of the probe positioned 1 mm above the mid-plane of a HTC (a) and then lowered until it first touches (b) and then stretches (c) the tissue. FIG. 5E is a graph showing representative forces recorded during HTC indentation. Arrows a, b, and c show force measurements associated with probe positions shown in (D). […] HTCs were preconditioned, then treated with varying concentrations of the four drugs as indicated. Forces were measured at 3 (f) and 24 hr (g). Force measurements were expressed relative to control, medium treated, HTCs (Fc). […] HTCs treated with drugs for 24 hours were fixed and labeled with Alexa 568 conjugated phalloidin. Fluorescence intensity was read on a plate reader and plotted relative to control, media treated, HTCs (Ic). […] At 3 hr (i-m) and 24 hr (n-r, s-w) post treatment, representative monolayers were fixed and stained with Alexa 568 conjugated phalloidin and DAPI. […] Note the larger scale bar in (g) and (l). Images were captured on a Leica SP5 confocal microscope using a water-immersion 63× objective, scale bar=50 μm.
Tissue force is maintained through the integrity of the cellular cytoskeleton, especially actin and myosin. To quantify amount of F (filamentous)-actin in the HTCs treated with the compounds, the HTCs were stained with Alexa […] conjugated phalloidin. […] This is in agreement with our previous report that CD mediated reduction in tissue force was due to the loss of intact F-actin. However, force reductions by H1152 and DNP were not related to the loss of F-actin. […] By 24 hours, short F-actins were re-distributed within less-spread (FIG. 5O) and binuclear (FIG. 5T) cells.

HTCs of REF-52 cells = test system: HTCs of REF-52 cells
Procedure: 3-(4,5-dimethylthiazol-2-yl)-2,5-diphenyltetrazolium (MTT, M-6494, Invitrogen) was used to quantify cell viability in the HTCs. At predetermined times following drug exposure, MTT was added to each well to achieve 0.5 mg/ml. MTT was left in the wells for 2 hr and then removed. The formazan dye that forms in the cells were then suspended in 500 μl of isopropanol (S77795, Fisher Scientific) containing 0.1 N hydrochloric acid. Two hundred microliters of the formazan solution is then put into a 96-well plate well and read on the Synergy HT plate reader. Absorbance at 570 and 650 nm were recorded and the difference (A570-A650) was used as the absorbance intensity of the formazan.
All chemicals are from Sigma (Sigma-Alrich, St. Louis, Mo.) unless otherwise noted. […] DNP was diluted to 1 M in DMSO and then to 100, 10, and 1 mM in -F/G/P DMEM. Following HTC preconditioning and background force (i.e. pre-drug) measurement, 50 μl of the appropriate drug dilutions were added to each well to achieve the desired treatment concentration. Fifty microliters of -F/G/P DMEM was added to the control wells. Upon drug addition, medium in the wells was mixed by pipetting four times.
Finally to measure the compounds' effects on cellular viability, the assay using 3-(4,5-Dimethylthiazol-2-yl)-2,5-diphenyltetrazolium bromide (MTT) was performed. In cells, the yellow MTT is converted to a purple colored formazan by succinate dehydrogenase and this change can be quantified by light absorbance between 500-600 nm was quantitatively recorded using the plate reader.

[4] = test system: human epidermoid cell lines; settings: reported; cited from earlier work
HepG2 cells = settings: previously reported; cited from earlier work
[5] = HTC, 3 hr treatment, read-out: EC50 of tissue force reduction

Compound: Cc1cncc2cccc(S(=O)(=O)N3CCCNC[C@@H]3C)c12 [H-1152]
effect on tissue (HTC contractile) force, in words ([1]; HTC): dose-dependently reduced tissue force
effect on tissue (HTC contractile) force, in words ([1]; HTC, listed as RKI): very effective at reducing HTC force
effect on tissue (HTC contractile) force, in words ([1]; HTC, listed as RKI1): dose-dependently reduced HTC contractile force; also recorded: effectively reduced tissue force
EC50 [1, 5]: ~0.1 µM
EC50 ([1]; HTC, time not stated at place, read-out: force-reducing EC50): 0.1 µM
effect on mitochondrial potential, in words ([2]; listed as RKI): limited mitochondrial and viability toxicity
effect on mitochondrial potential, in words ([2]; listed as RKI1): minimal uncoupling activity
F-actin morphology in cells, microscopy (REF-52 cells; listed as RKI): did not dramatically affect F-actin morphology
F-actin morphology in cells, microscopy (REF-52 cells; listed as RKI1): limited to no effects
F-actin content of HTCs (Alexa-phalloidin intensity) [3]: comparable to controls

Compound: O=[N+]([O-])c1ccc(O)c([N+](=O)[O-])c1 [DNP, 2,4-dinitrophenol]
reduction in EC50 of effect on tissue force ([1]; 24 hr vs 3 hr): 65 fold
concentration needed to reduce tissue force relative to H-1152 or CD ([1]; HTC): ~10,000 fold
effect on tissue (HTC contractile) force, in words ([1]; HTC): dose-dependently reduced HTC contractile force; also recorded: also reduced tissue force; also recorded: very effective at reducing HTC force
EC50 ([1]; Rattus norvegicus, REF52, 3 h, read-out: EC50 of tissue force reduction): 1300 µM
EC50 ([1]; Rattus norvegicus, REF52, 24 h, read-out: EC50 of tissue force reduction): 20 µM
effect on HTC viability / MTT signal, in words (HTCs of REF-52 cells; 24 hours): did not affect MTT signal
reduction in TMRE EC50 by 24 hours treatment ([2]; 24 hr vs 3 hr): 3.6 fold
effect on mitochondrial potential, in words [2]: dose-dependently uncoupled HTC mitochondrial potential; also recorded: extensive uncoupling effect
EC50 ([2]; REF52, 3 h): ~340 µM
EC50 ([2]; REF52, 24 h): ~95 µM
cytotoxicity signs in cell monolayers (confluency, nuclei, shrinkage) (REF-52 cells): less than that of control
F-actin morphology in cells, microscopy (REF-52 cells): limited to no effects; also recorded: did not dramatically affect F-actin morphology
F-actin content of HTCs (Alexa-phalloidin intensity) [3]: comparable to controls

Compound: C=C1[C@@H](C)[C@H]2[C@H](Cc3ccccc3)NC(=O)[C@]23[C@H](OC(C)=O)/C=C/[C@@](C)(O)C(=O)[C@@H](C)C/C=C/[C@H]3[C@@H]1O [CD, Cytochalasin D]
effect on tissue (HTC contractile) force, in words ([1]; HTC): dose-dependently reduced HTC contractile force; also recorded: dose-dependently reduced tissue force; also recorded: very effective at reducing HTC force
EC50 [1, 5]: ~0.1 µM
reduction of MTT signal (HTCs of REF-52 cells; 0.2 μM, 24 hours): 40%
reduction of MTT signal (HTCs of REF-52 cells; 2 μM, 24 hours): 40%
cytotoxicity signs in cell monolayers (confluency, nuclei, shrinkage) (REF-52 cells): cytotoxicity was evident
F-actin morphology in cells, microscopy (REF-52 cells): extensive actin depolymerization by 3 hr; also recorded: extensive disruption of F-actin as early as 3 hours
F-actin content of HTCs (Alexa-phalloidin intensity) [3]: significantly reduced
F-actin content of HTCs (Alexa-phalloidin intensity) ([3]; listed as Cytochalasin D): reduced cellular F-actin
LD50 [4]: 5 to 30 µM

Compound: C=C(C)[C@H]1Cc2c(ccc3c2O[C@@H]2COc4cc(OC)c(OC)cc4[C@@H]2C3=O)O1 [ROT, rotenone]
effect on tissue (HTC contractile) force, in words ([1]; HTC): dose-dependently reduced HTC contractile force; also recorded: also reduced tissue force; also recorded: moderate negative impact
reduction of MTT signal (HTCs of REF-52 cells; 10 μM, 24 hours): 40%
effect on mitochondrial potential, in words [2]: moderate negative impact
cytotoxicity signs in cell monolayers (confluency, nuclei, shrinkage) (REF-52 cells): cytotoxicity was evident; also recorded: less than that of control; also recorded: Noticeable nuclear fragmentation
F-actin morphology in cells, microscopy (REF-52 cells): limited to no effects; also recorded: did not dramatically affect F-actin morphology
F-actin content of HTCs (Alexa-phalloidin intensity) [3]: inconclusive
toxicity (HepG2 cells): 25%

formazan absorbance relative to control (A/Ac) (HTCs of REF-52 cells; rat, 24 h, 10 %): 0.11±9×10^−3
Compound: C[S+](C)[O-] [DMSO, dimethyl sulfoxide]
